Assay results reported in patent US8722697B2, “Pharmaceutical composition for treating hypertension and metabolic syndrome and use thereof” (Lunan Pharmaceutical Group Corporation, priority 2008, dated 2014).

Key:
calcium channel = conditions: background statement; cited from earlier work
[1] = tested on: spontaneously hypertensive rats; test: Tail arterial blood pressure of conscious spontaneously hypertensive rats; assay type: in vivo, rat; conditions: X ± S, n = 8
Procedure: (§1) Forty-eight spontaneously hypertensive rats (male, body weight (300±20) g, provided by Pharmacological Center for New Medicine of Shandong New Time Pharmaceutical Co., Ltd.) were fed for one week for acclimation, and then randomly divided into six groups with eight animals in each group.
(§2) Model control group: intragastric administration of same volume of physiological saline;
(§3) P group: 1 mg/(kg·d) of pioglitazone;
(§4) A+R group: 2 mg/(kg·d) of amlodipine+1 mg/(kg·d) of rosuvastatin calcium;
(§5) P+R group: 1 mg/(kg·d) of pioglitazone+1 mg/(kg·d) of rosuvastatin calcium;
(§6) Pharmaceutical composition of the present invention: 2 mg/(kg·d) of amlodipine+1 mg/(kg·d) of pioglitazone+1 mg/(kg·d) of rosuvastatin calcium;
(§7) Each group was given intragastric administration once every day for ten weeks. During the experiment, the diet, survival status and behaviors of the animals were recorded, and the animals were weighted once every day and the doses of administration were adjusted according to the body weights. Animals were sacrificed after ten weeks, and their hearts were taken out to determine the weights of left ventricles and calculate left ventricular indexes.
Blood pressures were measured five times between two and five hours after intragastric administration in the first week, the third week and the sixth week, respectively. The average value of the blood pressures was used as the blood pressure of the sample.

[2] = tested on: spontaneously hypertensive rats; test: Cardiac hypertrophy (left ventricular weight/body weight) in spontaneously hypertensive rats; assay type: in vivo, rat; conditions: after ten weeks of intragastric administration once daily; X ± S, n = 8
Procedure: as §1, §2, §3, §4, §5, §6, §7
After being sacrificed with 10% potassium chloride (2 mmol/L, 1 ml/rat), the rats were weighed. […] The left ventricular was weighed after the atria were removed, and a ratio of left ventricular weight to body weight was calculated.

[3] = tested on: spontaneously hypertensive rats; test: Carotid intima-media thickness in spontaneously hypertensive rats; assay type: in vivo, rat; conditions: carotid artery; intragastric once daily for six months, high sugar and high fat diets; X ± S, n = 8
Procedure: Forty-eight spontaneously hypertensive rats (male, body weight (300±20) g, provided by the Pharmacological Center for New Medicine of Shandong New Time Pharmaceutical Co., Ltd.) were fed for one week for acclimation, and then randomly divided into six groups with eight rats in each group.
as §2
P group: intragastric administration of 2 mg/(kg·d) of pioglitazone;
LA+R group: intragastric administration of 1 mg/(kg·d) of levo-amlodipine+1 mg/(kg·d) of rosuvastatin calcium;
P+R group: intragastric administration of 2 mg/(kg·d) of pioglitazone+1 mg/(kg·d) of rosuvastatin calcium;
LA group: intragastric administration of 1 mg/(kg·d) of levo-amlodipine;
Pharmaceutical composition of the present invention: intragastric administration of 1 mg/(kg·d) of levo-amlodipine+2 mg/(kg·d) of pioglitazone+1 mg/(kg·d) of rosuvastatin calcium;
Each group was given intragastric administration once every day and fed with high sugar and high fat diets for six months. During the experiment, the diet, survival status and behaviors of the animals were recorded, and the animals were weighed once every week and the doses of administration were adjusted according to the body weights.
After the animal was anesthetized and fixed, Even's blue (60 mg/kg) dye was injected via a femoral artery. […]

[4] = tested on: spontaneously hypertensive rats; test: Urinary microalbumin (bromophenol blue absorbance) in spontaneously hypertensive rats; assay type: in vivo, rat; conditions: intragastric once daily, high sugar and high fat diets, doses per group b107-b111; twelve-hour overnight urine; week not stated; X ± S, n = 8
Description: as §2

[5] = tested on: patients suffered from metabolic syndrome; test: Clinical treatment of patients suffered from metabolic syndrome; assay type: in vivo, human; conditions: X ± S
Description: Eighty-eight metabolic syndrome patients were selected from those received treatment in Linyi People's Hospital from May 2007 to May 2008, and randomly divided into a control group and an experimental group.
Control group: twenty-eight males and sixteen females, whose ages were between 62 and 71 and whose body mass indexes (BMI) were between 25.5 and 30;
Experimental group: twenty-four males and twenty females, whose ages were between 60 and 70 and whose body mass indexes (BMI) were between 24.5 and 31;
Before the treatment, all patients were subjected to blood lipids (including total cholesterol (TC), high-density lipid cholesterol (HDLC)) analysis, and detection of glycated hemoglobin (HbAlC), fasting blood glucose (FBG), fasting insulin (FINS) and fibrinogen (Fg).
Patients suffered from metabolic syndrome were selected according to the diagnostic standards for type-II diabetes mellitus and hypertension made by WHO in 1999 and referring to the diagnostic standards for metabolic syndrome made by US National Cholesterol Education Program Adult Treatment Panel (NCEP-ATP III) in 2000, while cases of […], heart failure (above grade II), diseases in liver, kidney and blood system and like were excluded.
Patients in the control group were administrated with 15 mg of pioglitazone once every day, and patients in the experimental group were administrated with 5 mg of amlodipine, 7.5 mg of pioglitazone and 5 mg of rosuvastatin calcium, i.e. the proportions as described in Example 1, once every day. After eight weeks of continuous treatment, all of the above parameters were re-determined, in which blood glucose was determined with hexokinase method, blood lipid was determined with esterase method, fibrinogen was determined with coagulation method and chromogenic substrate assay, HbAlC was determined with chromatography, and fasting insulin was determined with chemiluminescence immunoassay.
Statistical analysis: SPSS software was employed, and test of significance was performed by using a paired sample t test.

[6] = intragastric once daily, 2-5 h after administration

Compound | Activity relative to the dextroisomer (calcium channel) [times] | Activity relative to the racemate (calcium channel) | Blood pressure, before treatment ([1]; baseline before treatment) [mmHg] | Blood pressure after treatment, first week [1, 6] [mmHg] | Blood pressure after treatment, sixth week [1, 6] [mmHg] | Blood pressure after treatment, third week [1, 6] [mmHg] | Left ventricular weight [2] [g] | Left ventricular weight/body weight (×10^−3) [2] | Maximum intima thickness [3] [mm] | Ratio of intima to media thickness [3] | Urinary microalbumin, Absorbance A (600 nm) [4] | FINS (fasting insulin), after treatment ([5]; after eight weeks, once every day, chemiluminescence immunoassay) [mlU/L] | HbAlC (glycated hemoglobin), after treatment ([5]; after eight weeks, once every day, chromatography) [%] | Fg (fibrinogen), after treatment ([5]; after eight weeks, once every day, coagulation method and chromogenic substrate assay) [mg/dL] | FBG (fasting blood glucose), after treatment ([5]; after eight weeks, once every day, hexokinase method) [mmol/L] | FINS (fasting insulin), before treatment ([5]; baseline before treatment, chemiluminescence immunoassay) [mlU/L] | HbAlC (glycated hemoglobin), before treatment ([5]; baseline before treatment, chromatography) [%] | Fg (fibrinogen), before treatment ([5]; baseline before treatment, coagulation method and chromogenic substrate assay) [mg/dL] | FBG (fasting blood glucose), before treatment ([5]; baseline before treatment, hexokinase method) [mmol/L]
levo-amlodipine [A Group] | 1000 | twice as high as that of the racemate |  |  |  |  |  |  |  |  |  |  |  |  |  |  |  |  | 
CCc1ccc(CCOc2ccc(CC3SC(=O)NC3=O)cc2)nc1 (stereo not shown) [P group, pioglitazone] |  |  | 151 ± 7.6 | 157 ± 8.6 | 170 ± 8.8 | 162 ± 10.3 | 0.99 ± 0.10 | 3.33 ± 0.19 ×10^−3 | 0.130 ± 0.026 | 2.246 ± 0.361 | 0.568 ± 0.125^• | 25.68 ± 5.34 | 6.39 ± 0.56 | 392.6 ± 64.51 | 6.63 ± 1.65 | 32.4 ± 7.21 | 6.89 ± 0.65 | 419.6 ± 89.62 | 7.12 ± 2.06
